Results as given in PubChem BioAssay AID489041 (Sanford-Burnham Center for Chemical Genomics, 2010).
The source made the active and inactive calls. The rule behind the calls is not given here.

System: HEK-293T NF-kB luciferase reporter counterscreen, luminescence
Assay: NF-kB reporter inhibition in HEK-293T, dose response, counter-screen for T-cell antigen receptor NF-kB inhibitors, HEK-293T cells, luminescence (AID 489041)

Row | SMILES | IC50
1 | CCCCCCCCn1c2c(c(=N)c3ccccc31)CCC2 | 1.39 µM
2 | Cn1ncnc2c(=O)n(C)c(=O)nc1-2 | 1.11 µM
3 | CC(C)c1oc(=O)cc2c1[C@@H](O)[C@H]1OC(=O)[C@@]3(C)C[C@@H](O)[C@@H](O)[C@@]2(C)C13 (stereo partly specified) | 0.75 µM
4 | COc1cc2c(c(OC)c1OC)-c1ccc(OC)c(=O)cc1[C@@H](N(C)CC#CCO)CC2 | 0.56 µM
5 | C=C1C(O)[C@@H]2O[C@]3(CC[C@H](/C=C/C(C)[C@@H]4CC(C)=CC5(O[C@H](C[C@@](C)(O)CO)CCC5O)O4)O3)CC[C@H]2O[C@@H]1C(O)CC(C)[C@H]1OC2(CCCCO2)CCC1C (stereo partly specified) | < 0.16 µM
6 | CC(C)CC[n+]1ccccc1/C=C/c1ccc(N(C)C)cc1 | 1.62 µM
7 | Cc1ccccc1NS(=O)(=O)c1ccc(N2CCCC2=O)cc1 | 42.2 µM (inactive)
8 | CCCCC(=O)NC(c1ccc(Cl)cc1Cl)c1ccc2cccnc2c1O (stereo unspecified) | > 80 µM (inactive)
9 | C/C(=N\NC(=O)c1ccc(Cl)c(Cl)c1)c1ccccn1 | > 80 µM (inactive)
10 | COC(=O)c1[nH]c2ccc(Br)cc2c1NC(=O)CN1CCN(C2CCCCC2)CC1 | 13.4 µM
11 | O=C(NCCc1ccccc1)c1ccc2c(c1)OCCO2 | 1.3 µM
12 | NC(=O)CC(NC(=O)c1ccc(Br)cc1)c1ccc(N2CCCCCC2)c([N+](=O)[O-])c1 (stereo unspecified) | 29.3 µM (inactive)
13 | CCCN1C=CC(=C2C(=O)c3ccccc3C2=O)C=C1 | 1.1 µM
14 | COc1cc(C(=O)Nc2ccc3c(c2)ncn3C)cc(OC)c1OC | 14.7 µM
15 | COc1cccc(/C=N/Nc2ccc(C(=O)O)cc2)c1O | 0.41 µM
16 | Cc1ccc(NS(=O)(=O)c2ccc(-c3cnc(C4CC4)o3)cc2)c(C)c1 | 1.47 µM
17 | COc1cc2c(cc1O)CC[C@@H]1[C@@H]2CC[C@]2(C)[C@@H](O)CC[C@@H]12 | 23 µM (inactive)
18 | CN(C)c1ccc2c(c1)OC(N)=C(C#N)C2c1cccc(F)c1 (stereo unspecified) | 1.45 µM
19 | C/C=C(\C)C(=O)N[C@@H](c1ccccc1)[C@@H](O)C(=O)O[C@H]1C[C@@]2(O)[C@@H](OC(=O)c3ccccc3)C3[C@](C)(C(=O)[C@H](OC(C)=O)C(=C1C)C2(C)C)[C@@H](O)C[C@H]1OC[C@@]31OC(C)=O (stereo partly specified) | > 80 µM (inactive)
20 | CCCCCN1C=CC(=C2C(=O)c3ccccc3C2=O)C=C1 | 1.9 µM
21 | O=C(c1ccc(Cl)cc1)c1cc([N+](=O)[O-])ccc1N1CCOCC1 | 11.9 µM
22 | Cc1cc(NC(=O)CSc2nc3ccccc3c(=O)n2C2CCCC2)no1 | 19.1 µM
23 | Cc1cc(C)c(S(=O)(=O)Nc2ccc3c4c(cccc24)CC3)c(C)c1 | 1.73 µM
24 | COc1ccc(OCC(=O)Nc2ccccc2N2CCCCC2)cc1 | 12 µM

Row | SMILES | IC50
25 | CCOc1ccc(N(C)S(=O)(=O)c2ccc(-c3cc(C)no3)s2)cc1 | 7.17 µM
26 | COc1cc(C2C(C#N)=C(N)Oc3cc(N(C)C)ccc32)cc2c1OCO2 (stereo unspecified) | 3.56 µM
27 | O=C(Nc1ccc(S(=O)(=O)N2CCCCC2)cc1)c1ccc(CN2CCOCC2)cc1 | 3.95 µM
28 | O=C(NN=Cc1c(O)ccc2ccccc12)c1ccc2c(c1)OCO2 | 0.74 µM
29 | COc1cc(-c2c(-c3cc(OC)c(OC)c(OC)c3)noc2C)ccc1F | 0.72 µM
30 | CCc1cc(C(=O)NC2CCCc3c2cnn3-c2cccc(C)c2C)n(C)n1 (stereo unspecified) | < 0.16 µM
31 | C/C=C/COC(=O)c1[nH]c2c(c1C)C(=O)CC(c1ccco1)C2 (stereo unspecified) | 0.34 µM
32 | CCOc1ccc(Nc2cc(C)nc(-n3nc(C)cc3C)n2)cc1 | 3.93 µM
33 | O=C(NC(Nc1nc2ccc([N+](=O)[O-])cc2s1)(C(F)(F)F)C(F)(F)F)c1ccccc1 | > 80 µM (inactive)
34 | COc1ccc(Cn2c(SCc3ccc(C)cc3)nc3cc(OC)c(OC)cc3c2=N)cc1Cl | > 80 µM (inactive)
35 | CCCCCCCn1c2c(c(=N)c3ccccc31)CCC2 | 0.99 µM
36 | O=C(O)c1ccc(N/N=C/c2ccc3c(c2)OCO3)cc1 | 1.72 µM
37 | COc1ccccc1NC(=O)C1=C(C)Nc2nc3ccccc3n2C1c1cccs1 (stereo unspecified) | 13.6 µM
38 | Cc1cccc(N2CCN(C(=O)c3c(-c4ccccc4)noc3C)CC2)c1C | 11.1 µM
39 | Cc1ccc(C(=O)Nc2cnc3ccccc3c2)cc1 | 0.83 µM
40 | COc1ccc(C(=O)Nc2ccc3[nH]c(-c4cccc(OC)c4)cc(=O)c3c2)cc1 | > 80 µM (inactive)
41 | Cc1ccc(NC(=O)Nc2ccnc(-c3cccnc3)n2)cc1 | > 80 µM (inactive)
42 | CC(=O)c1ccc(Oc2cc(C)nc(-n3nc(C)cc3C)n2)cc1 | 14.6 µM
43 | CCOC(=O)C(C)Oc1cccc2c(=O)n(CC(=O)NCc3ccco3)ccc12 (stereo unspecified) | 7.92 µM
44 | Cc1ccc(S(=O)(=O)Nc2ccccc2-c2ccccc2)cc1 | 8.86 µM
45 | O=C(c1ccccc1-c1ccccc1)N1CCN(c2ccccn2)CC1 | > 80 µM (inactive)
46 | Cc1ccc(S(=O)(=O)NCc2ccncc2)c(C)c1C | 0.3 µM
47 | O=C(Nc1nc2ccc(S(=O)(=O)N3CCCC3)cc2s1)C1CCCCC1 | 2.8 µM
48 | C=C(C)COc1ccc(-c2[nH]ncc2-c2ccc(OC)c(OC)c2)c(O)c1 | 5.03 µM

Row | SMILES | IC50
49 | CCOC(=O)N1CCN(C(=O)C2CCCN(Cc3nc(-c4ccc(Cl)cc4)oc3C)C2)CC1 (stereo unspecified) | 3 µM
50 | Cc1cc(O)c2c(c1O)C(=O)[C@]13C(=C2O)C(=O)[C@@H]2[C@@H](O)[C@H]1[C@@H]1[C@H](O)[C@H]3C(=O)C3=C(O)c4c(O)cc(C)c(O)c4C(=O)[C@]312 | 11.4 µM
51 | CCN(CC)c1ccc(-c2nn3c(-c4n[nH]c5c4CCC5)nnc3s2)cc1 | 2.16 µM
52 | C[C@]12CC[C@H]3[C@@H](CC[C@]4(O)C[C@@H](O)CC[C@]34C=O)[C@@]1(O)CC[C@@H]2C1=CC(=O)OC1 | 0.34 µM
53 | COc1ccc2c(c1)/C(=C/c1cnc[nH]1)C(=O)N2 | 0.7 µM
54 | Cc1noc(C)c1COc1ccc(C(=O)NNC(=O)c2ccccc2F)cc1 | 30.3 µM (inactive)
55 | CCc1ccc(/C=N/NC(=O)c2cc(C3CC3)nc3ccccc23)s1 | 10.3 µM
56 | CC(=O)O[C@@]12CO[C@@H]1C[C@@H](O)[C@@]1(C)C(=O)[C@H](O)C3=C(C)[C@@H](OC(=O)[C@H](O)[C@@H](NC(=O)c4ccccc4)c4ccccc4)C[C@@](O)([C@@H](OC(=O)c4ccccc4)C12)C3(C)C (stereo partly specified) | > 80 µM (inactive)
57 | O=c1cc(-c2cccc(F)c2)[nH]c2ccccc12 | 1.05 µM
58 | CCOc1cccc(/C=N/Nc2ccc(S(=O)(=O)N(CC)CC)cn2)c1O | 0.31 µM
59 | COCCCNC(=O)C(=O)Nc1ccc2c(c1)N(S(=O)(=O)c1cccs1)CCC2 | 11.7 µM
60 | COc1ccc(CCN2C(=O)C3C4C=CC(C3C2=O)C2C(=O)N(CCc3ccc(OC)c(OC)c3)C(=O)C42)cc1OC (stereo unspecified) | 5.01 µM
61 | Cc1ccc(C(=O)c2cc([N+](=O)[O-])ccc2N2CCOCC2)cc1C | 10.3 µM
62 | CCCCS(=O)(=O)/C=C\C=C/S(=O)(=O)CCCC | 20.2 µM (inactive)
63 | Cc1nn(-c2ccccc2Cl)c(Cl)c1/C=N/Nc1nc2ccccc2s1 | < 0.16 µM
64 | Cc1ccc(O)c(NC(=O)c2cc(-c3ccco3)on2)c1 | > 80 µM (inactive)
65 | Oc1ccccc1N=Nc1nc(-c2ccccc2)c(-c2ccccc2)[nH]1 | 2.84 µM
66 | CCSc1nc2ccccc2n1C(=O)/C=C\c1ccc(OC)c(OC)c1 | 18.2 µM
67 | CN(Cc1ccccc1)C1=CC(=[N+]2CCCC2)CC(C)(C)C1 | 1.61 µM
68 | COc1ccc(C2=Nn3c(nnc3-c3ccccc3OC)SC2)cc1OC1CCCC1 | 3.68 µM
69 | Cc1nc(SCC(=O)Nc2nc3ccccc3s2)c(C#N)c(C)c1C | < 0.16 µM
70 | CCOc1ccc2c(c1)OC(c1ccc(OC)cc1)(C(F)(F)F)NC2=O (stereo unspecified) | 9.2 µM
71 | COc1cccc(N2CCN(c3ncnc4c3cnn4-c3ccc(C)cc3C)CC2)c1 | 2.07 µM
